Laboratory results published in patent EP0153678A1, “Cinnamic acid derivatives, processes for the preparation thereof and pharmaceutical compositions” (Tanabe Seiyaku Co., Ltd., priority 1984, dated 1985).
Counter-ions that a name gives are not always drawn.

How the values were obtained:
[1] = tested on: pulmonary embolism induced by arachidonic acid; assay: Prophylactic effect against pulmonary embolism induced by arachidonic acid in mice (method of Kohler et al.); assay type: in vivo; details: for Evalu-tion (shortening rate of the recovery time): ddY male mice, test compound 30 mg/kg orally in 0.25 % CMC, after one hour arachidonic acid 70 mg/kg intravenously; for prophylactic effect against arachidonic acid-induced pulmonary embolism, relative to 3-[4-(3-pyridylmethyl)phenyl]-2-methylacrylic acid hydrochloride: Kohler et al.'s method, times as strong as the known compound
Method: After one hour, arachidonic acid (70 mg/10 ml saline solution/kg) was intravenously administered. […] The time from having had difficulty in breathing and laying till starting to move was counted as a recovery time. When the test animal was died, the longest recovery time during the test was counted. The shortening rate of the recovery time was calculated by the following formula for showing the effect of the test compounds.

[2] = Toxicity compared with the known compound (method not described); details: fraction of the toxicity of the sodium salt of the known compound

For `CC(=Cc1ccc(Cc2cccnc2)cc1)C(=O)O.Cl` [3-[4-(3-pyridylmethyl)phenyl]-2-methylacrylic acid hydrochloride, reference compound], the “Evalu-tion (shortening rate of the recovery time)” value (from here on “Evalu-tion”) [1] was “± (evaluated as (±) when it was from 20 % to less than 50 %)”.
For `CC(=Cc1ccc(C(=O)c2cccnc2)cc1)C(=O)O` [hydrochloride], the “Evalu-tion” value [1] was “+ (evaluated as (+) when it was more than 50 %)”.
For `CCOC(c1ccc(C=C(C)C(=O)[O-])cc1)c1cccnc1.[Na+]` (stereo not drawn) [sodium α-methyl-4-(α-ethoxy-3-pyridylmethyl)cinnamate], the “prophylactic effect against arachidonic acid-induced pulmonary embolism, relative to 3-[4-(3-pyridylmethyl)phenyl]-2-methylacrylic acid hydrochloride” value [1] was “more than 2 times”, the “Evalu-tion” value [1] was “+ (evaluated as (+) when it was more than 50 %)” and the “toxicity relative to sodium 3-[4-(3-pyridylmethyl)phenyl]-2-methyl--acrylate” value [2] was “about half”.
With `COC(c1ccc(C=C(C)C(=O)O)cc1)c1cccnc1` (stereo not drawn) [sodium α-methyl-4-(α-methoxy-3-pyridylmethyl)cinnamate] the “Evalu-tion” value [1] was “+ (evaluated as (+) when it was more than 50 %)”.
With `CCCOC(c1ccc(C=C(C)C(=O)[O-])cc1)c1cccnc1.[Na+]` (stereo not drawn) [sodium α-methyl-4-(α-n-propoxy-3-pyridylmethyl)cinnamate] the “Evalu-tion” value [1] was “+ (evaluated as (+) when it was more than 50 %)”.
In the case of `CC(=Cc1ccc(C(O)c2cccnc2)cc1)C(=O)O` (stereo not drawn) [α-methyl-4-(α-hydroxy-3-pyridylmethyl)cinnamic acid hydrochloride], the “Evalu-tion” value [1] is reported as “+ (evaluated as (+) when it was more than 50 %)”.
In the case of `CC(=Cc1ccc(C(O)c2cccnc2)cc1)C(=O)O` (stereo not drawn) [α-methyl-4-(α-hydroxy-3-pyridylmethyl)cinnamic acid], the “prophylactic effect against arachidonic acid-induced pulmonary embolism, relative to 3-[4-(3-pyridylmethyl)phenyl]-2-methylacrylic acid hydrochloride” value [1] is reported as “more than 2 times”.
